The record followed here is patent US20220370545A1, “INTEGRIN RECEPTOR ALPHA V BETA 3 AND ITS LIGAND INVOLVED IN CHRONIC ITCH” (North Carolina State University, priority 2019, published 2022).

Data set [1] has as its system Integrin αvβ3 on DRG Sensory Neurons. Briefly: Fura-2 calcium imaging of periostin-induced calcium response in cultured DRG sensory neurons. The class given is cell-based, mouse. As to conditions: periostin 16 ng/μl. How it is done:
DRGs were isolated from mice and dissociated in 1 mL of media containing 2.5 U/mL of dispase (Fisher Scientific, Hampton, New Hampshire, United States of America) and 2.5 mg/mL of collagenase (Fisher Scientific, Hampton, New Hampshire, United States of America). After dissociation, the cells were washed with complete media (DMEM (HiMedia Laboratories, Mumbai, India) with 10% FBS (Atlanta Biologicals, Flowery Branch, Georgia, United States of America) and 1% PenStrep (VWR International, Radnor, Pa., United States of America)) and pelleted at 1000 rpm for 15 minutes. Approximately 30 μL of the cell suspension was plated on 18 mm round glass slides with a coating of laminin (Sigma Aldrich, St. Louis, Miss., United States of America) and poly-L-lysine (Sigma Aldrich, St. Louis, Miss., United States of America) and incubated for 1.5 hours. Afterwards, 1 mL of complete media was added, and the cells were incubated overnight. All incubation steps were done at 37° C. with 5% CO2.
Before imaging, cells were incubated in 350 μL of complete media containing 1 μM Fura-2 AM (Enzo Life Sciences, Farmingdale, New York, United States of America) for 30 min at 37° C. with 5% CO2. During imaging, the cells were perfused with a buffer containing the following: 135 mM sodium chloride, 3.2 mM potassium chloride, 2.5 mM magnesium chloride, 2.8 mM calcium chloride, 667 μM monobasic sodium phosphate, 14.2 mM sodium bicarbonate, and 10.9 mM D-glucose (all from VWR International, Radnor, Pennsylvania, United States of America) with a pH between 7.00 and 7.40. The buffer and the holding plate were kept at 37° C. while imaging. Imaging data was collected on a TE200 inverted microscope using NIS Elements software (Nikon, Melville, New York, United States of America). Cells were exposed to 340 nm and 380 nm wavelengths for 100 ms and the A340/A380 ratio was calculated. Traces were analyzed using Excel and responses greater than 10% of the baseline were counted. Each data point in the scatter plots represented one coverslip.
Calcium Imaging: Calcium imaging will be performed on the DRG neurons as previously described (Pitake et al., 2018). Briefly, DRG neurons will be incubated for longer than 30 min in DMEM containing 1 μM of a fluorescent indicator Fura-2 AM (Enzo Life Sciences, Inc., Farmingdale, N.Y., United States of America). The neurons will be perfused in a standard bath solution containing 140 mM NaCl, 5 mM KCl, 2 mM MgCl2, 2 mM CaCl2, 10 mM Hepes and 10 mM D-glucose at pH 7.4 adjusted with NaOH. A calcium-free bath solution will be prepared by omitting 2 mM CaCl2 from the standard bath solution […] adding 5 mM EGTA. Fura-2 fluorescence excited at 340 and 380 nm and emission will be monitored at 510 nm with a digital CCD camera (Andor Clara DR-4152, Andor Technology Ltd, Belfast, United Kingdom). Data will be obtained by every 100 ms using an imaging software (NIS-Elements AR 4.13.04, Nikon Corporation, Tokyo, Japan) and analyzed by Microsoft Excel (Microsoft Corporation, Redmond, Wash., United States of America). Values of calcium responses will be normalized by dividing measured values (F) with average values of initial 5 frames (F0) of each cell and described as F/F0. In this study, changes in each response to an application with F/F0>0.1 will be regarded as positive. Cells not responding to 100 mM KCl, which is applied at the end of each experiment, will be regarded as non-neuronal cells and excluded from analysis.
Periostin (10 ug/ml) will be used to evoke calcium influx. This response has been optimized. The peptide inhibitors will be tested on DRG neurons to measure calcium influx in response to periostin. Data on calcium imaging will be presented by presenting each mouse±SEM. The IC50 value of the inhibitor will also be determined
Additional inhibitors were studied using the calcium imaging method described in Example 3. Briefly, the Fura2-AM calcium imaging method was performed on live dorsal root ganglia (DRG) neurons (ex vivo). […]

In data set [2] the test system is periostin-induced itch behavior in mice. The data set can be described thus: Scratching behavior after intradermal periostin injection in the dorsal neck of mice. The class given is in vivo, mouse. On the procedure:
All behavioral experiments were conducted during the light cycle at ambient temperature (23° C.). Behavioral assessment of scratching behavior was conducted as described previously (Mishra et al., 2011). Briefly, mice were injected intradermal into the nape of the neck with periostin (R&D), histamine, and chloroquine (all Millipore-Sigma) as previously described (Shimada and LaMotte, 2008). Compounds were diluted in PBS and the same was used as a vehicle. […] Scratching behavior was recorded for 30 minutes and data was presented in bouts per 30 minutes for mice. One bout was defined as scratching behavior toward the injection site between lifting the hind leg from the ground and either putting it back on the ground or guarding the paw with the mouth. Injections of periostin, and capsaicin in the mouse cheek itch/pain model were performed as described previously (Shimada and LaMotte, 2008). For eye wipes assay, periostin and capsaicin were dropped on mouse cornea and counted wipes for 1-minute. Injection volume was always 20 μl in mice. For dog's study, periostin (25 μg/25 μl) was injected in the dorsal neck (s.c.) and behavior was recorded and quantified for 30 minutes as “duration of pruritus manifestation” (DPM), as described earlier (Paps et al., 2016). For non-human primate (NHP) studies, periostin (25 μg/100 μl) was injected in the NHP thigh (s.c.) on the lateral side of the upper part of the hind limb; the skin area over the vastus lateralis muscle. The lateral side of the upper part of the hind limb was chosen as an injection site because this location is safe and easy to access when the animal is in a chair. The number of scratches is easily countable in NHP. When different raters separately scored a single tape, the ratings indicated high interrater reliability (coefficient of correlation, r>0.95). This method of itch readout in NHP has been used and accepted (Ko and Naughton, 2000). The behavior was recorded for 30 minutes duration and number of scratches quantified. In NHP, a scratch is defined as one brief (<1 s) episode of scraping contact of the forepaw or hind paw on the skin surface

`CC(C)[C@H]1C(=O)N[C@@H](CCCN=C(N)N)C(=O)NCC(=O)N[C@@H](CC(=O)O)C(=O)N[C@H](Cc2ccccc2)C(=O)N1C` [cilengitide, cyclo RGDf-n(Me)V]: the periostin-dependent calcium response entry in data set [1] (perfusion with 100 nM cilengitide) is “significantly reduced”. Also, the periostin-induced itch behavior result is recorded as “significantly reduced” in data set [2] (cilengitide 100 nM i.p. 10 minutes prior to periostin i.d. (5 μg/20 μl)); “significantly reduced” in data set [2] (cilengitide 100 nM i.v. 10 minutes prior to periostin i.d. (5 μg/20 μl)); “significantly reduced” in data set [2] (periostin and cilengitide mixed together and injected s.c.). Besides, in data set [2] (cilengitide injected alone, no periostin), the “itch behavior after cilengitide alone” value was “did not induce itch behavior”. In addition, the “comparison of inhibitory effect among routes of injection” value in data set [2] (intravenous pre-injection versus i.p. and mix) is reported as “strongest inhibitory effect”.

B1: periostin: fasciclin extracellular matrix protein, endogenous ligand of integrin αvβ3; mouse recombinant used (protein)
chain: NSYYDKVLAHSRIRGRDQGPNVCALQQILGTKKKYFSSCKNWYQGAICGKKTTVLYECCPGYMRMEGMKGCPAVMPIDHVYGTLGIVGATTTQHYSDVSKLREEIEGKGSYTYFAPSNEAWENLDSDIRRGLENNVNVELLNALHSHMVNKRMLTKDLKHGMVIPSMYNNLGLFINHYPNGVVTVNCARVIHGNQIATNGVVHVIDRVLTQIGTSIQDFLEAEDDLSSFRAAAITSDLLESLGRDGHFTLFAPTNEAFEKLPRGVLERIMGDKVASEALMKYHILNTLQCSEAITGGAVFETMEGNTIEIGCEGDSISINGIKMVNKKDIVTKNGVIHLIDEVLIPDSAKQVIELAGKQQTTFTDLVAQLGLASSLKPDGEYTLLAPVNNAFSDDTLSMDQRLLKLILQNHILKVKVGLSDLYNGQILETIGGKQLRVFVYRTAICIENSCMVRGSKQGRNGAIHIFREIIQPAEKSLHDKLRQDKRFSIFLSLLEAADLKDLLTQPGDWTLFAPTNDAFKGMTSEERELLIGDKNALQNIILYHLTPGVYIGKGFEPGVTNILKTTQGSKIYLKGVNETLLVNELKSKESDIMTTNGVIHVVDKLLYPADIPVGNDQLLELLNKLIKYIQIKFVRGSTFKEIPMTVYRPAMTKIQIEGDPDFRLIKEGETVTEVIHGEPVIKKYTKIIDGVPVEITEKQTREERIITGPEIKYTRISTGGGETGETLQKFLQKEVSKVTKFIEGGDGHLFEDEEIKRLLQGDTPAKKIPANKRVQGPRRRSREGRSQ
Regarding B1, the “DRG sensory neurons with periostin-dependent changes in intracellular calcium” value in data set [1] is “about 10±2%”. In addition, in data set [2] (single i.d. injection 5 μg/20 μl in dorsal neck, within 15 minutes), the “scratching behavior after periostin injection” value is recorded as “robust scratching behavior”.
